Data published in the supplement of paper PMC10627819.

What was measured:
S. aureus Newman = experiment: Bliss interaction score (quartile over a dose matrix) (fitness difference); higher = more antagonism (negative = synergy)
How it was run: (§1)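 Fitness was OD595 at entry into stationary phase divided by the plate's robust no-drug mean and capped at 1; single-drug fitness was inferred from combination data. The Bliss score is observed minus expected (product) fitness, summarised by quartiles over technical, biological and donor/recipient replicates.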

S. aureus DSM 20231 [1] = experiment: as above
How it was run: as §1

S. pneumoniae D39V [2] = experiment: as above
How it was run: as §1

B. subtilis 168 [3] = experiment: as above
How it was run: as §1

S. aureus DSM 20231 [4] = experiment: fitness (endpoint OD595 vs no drug) (fraction); higher = more growth
How it was run: (§2)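 With the first reading as background, OD595 was measured every 30 min for 14 h in 384-well plates kept at 37 °C and inoculated at OD595 0.01. TSB, LB Lennox or CY was the medium. Fitness is the optical density at the transition into stationary phase divided by the robust mean of no-drug control wells, with a cap of 1.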

S. pneumoniae D39V [5] = experiment: as above
How it was run: as §2

B. subtilis 168 [6] = experiment: as above
How it was run: as §2
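Throughout, for Bliss interaction score (quartile over a dose matrix): first quartile when negative (synergy) and third quartile when positive (antagonism).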

CO/N=C(\C(=O)N[C@@H]1C(=O)N2C(C(=O)[O-])=C(C[N+]3(C)CCCC3)CS[C@H]12)c1csc(N)n1 [Cefepime] + CCC[C@@H]1C[C@@H](C(=O)N[C@@H]([C@H]2O[C@H](SC)[C@H](O)[C@@H](O)[C@H]2O)[C@@H](C)O)N(C)C1 [Lincomycin]
Conditions	Bliss interaction score
B. subtilis 168 [3]	-0.0344
S. aureus DSM 20231 [1]	0.188
S. aureus Newman	0.0822
S. pneumoniae D39V [2]	0.2

Conditions	fitness
S. aureus DSM 20231 [4], first compound 0.125 µg/mL, partner 0.1 µg/mL	0.877
S. aureus DSM 20231 [4], first compound 0.125 µg/mL, partner 0.2 µg/mL	0.876
S. aureus DSM 20231 [4], first compound 0.25 µg/mL, partner 0.1 µg/mL	0.939
S. aureus DSM 20231 [4], first compound 0.25 µg/mL, partner 0.2 µg/mL	0.908
S. aureus DSM 20231 [4], first compound 0.5 µg/mL, partner 0.1 µg/mL	0.906
S. aureus DSM 20231 [4], first compound 0.5 µg/mL, partner 0.2 µg/mL	0.835
S. pneumoniae D39V [5], first compound 0.007 µg/mL, partner 0.2 µg/mL	0.734
S. pneumoniae D39V [5], first compound 0.007 µg/mL, partner 0.4 µg/mL	0.521
S. pneumoniae D39V [5], first compound 0.007 µg/mL, partner 0.8 µg/mL	0.198
S. pneumoniae D39V [5], first compound 0.0078 µg/mL, partner 0.215 µg/mL	0.909
S. pneumoniae D39V [5], first compound 0.0078 µg/mL, partner 0.43 µg/mL	0.823
S. pneumoniae D39V [5], first compound 0.0078 µg/mL, partner 0.86 µg/mL	0.593
S. pneumoniae D39V [5], first compound 0.014 µg/mL, partner 0.2 µg/mL	0.729
S. pneumoniae D39V [5], first compound 0.014 µg/mL, partner 0.4 µg/mL	0.523
S. pneumoniae D39V [5], first compound 0.014 µg/mL, partner 0.8 µg/mL	0.185
S. pneumoniae D39V [5], first compound 0.0155 µg/mL, partner 0.215 µg/mL	0.878
S. pneumoniae D39V [5], first compound 0.0155 µg/mL, partner 0.43 µg/mL	0.821
S. pneumoniae D39V [5], first compound 0.0155 µg/mL, partner 0.86 µg/mL	0.514
S. pneumoniae D39V [5], first compound 0.028 µg/mL, partner 0.2 µg/mL	0.674
S. pneumoniae D39V [5], first compound 0.028 µg/mL, partner 0.4 µg/mL	0.458
S. pneumoniae D39V [5], first compound 0.028 µg/mL, partner 0.8 µg/mL	0.133
S. pneumoniae D39V [5], first compound 0.031 µg/mL, partner 0.215 µg/mL	0.82
S. pneumoniae D39V [5], first compound 0.031 µg/mL, partner 0.43 µg/mL	0.723
S. pneumoniae D39V [5], first compound 0.031 µg/mL, partner 0.86 µg/mL	0.323

CO/N=C(\C(=O)N[C@@H]1C(=O)N2C(C(=O)[O-])=C(C[N+]3(C)CCCC3)CS[C@H]12)c1csc(N)n1 [Cefepime] + COc1cc(Cc2cnc(N)nc2N)cc(OC)c1OC [Trimethoprim]
Conditions	Bliss interaction score
B. subtilis 168 [3]	0.0732
S. aureus DSM 20231 [1]	0.0714
S. aureus Newman	0.0778
S. pneumoniae D39V [2]	0.255

fitness, S. aureus DSM 20231 [4]
Conditions	partner 0.125 µg/mL	partner 0.25 µg/mL	partner 0.5 µg/mL	partner 1 µg/mL
first compound 0.125 µg/mL	0.629	0.556	0.272	0.0708
first compound 0.25 µg/mL	0.631	0.573	–	0.0608
first compound 0.5 µg/mL	0.679	0.612	–	0.0509

CCCCCCCCCC(=O)N[C@@H](Cc1c[nH]c2ccccc12)C(=O)N[C@H](CC(N)=O)C(=O)N[C@@H](CC(=O)O)C(=O)N[C@@H]1C(=O)NCC(=O)N[C@@H](CCCN)C(=O)N[C@@H](CC(=O)O)C(=O)N[C@H](C)C(=O)N[C@@H](CC(=O)O)C(=O)NCC(=O)N[C@H](CO)C(=O)N[C@@H]([C@H](C)CC(=O)O)C(=O)N[C@@H](CC(=O)c2ccccc2N)C(=O)O[C@@H]1C [Daptomycin] + CC(=O)NC[C@H]1CN(c2ccc(N3CCOCC3)c(F)c2)C(=O)O1 [Linezolid]
Conditions	Bliss interaction score
B. subtilis 168 [3]	0.0563
S. aureus DSM 20231 [1]	0.0745
S. aureus Newman	0.0604
S. pneumoniae D39V [2]	-0.141

one replicate
Conditions	fitness
B. subtilis 168 [6], first compound 0.125 µg/mL, partner 0.0625 µg/mL	0.944
B. subtilis 168 [6], first compound 0.25 µg/mL, partner 0.0625 µg/mL	0.932
B. subtilis 168 [6], first compound 0.5 µg/mL, partner 0.0625 µg/mL	0.802
B. subtilis 168 [6], first compound 1 µg/mL, partner 0.125 µg/mL	0.6
B. subtilis 168 [6], first compound 1 µg/mL, partner 0.25 µg/mL	0.279
B. subtilis 168 [6], first compound 1 µg/mL, partner 0.5 µg/mL	0.0175
S. aureus DSM 20231 [4], first compound 0.125 µg/mL, partner 0.125 µg/mL	0.729
S. aureus DSM 20231 [4], first compound 0.125 µg/mL, partner 1 µg/mL	0.0431
S. aureus DSM 20231 [4], first compound 0.25 µg/mL, partner 0.125 µg/mL	0.869
S. aureus DSM 20231 [4], first compound 0.25 µg/mL, partner 1 µg/mL	0.0221
S. aureus DSM 20231 [4], first compound 0.5 µg/mL, partner 1 µg/mL	0.0214

fitness
Conditions	first compound 0.125 µg/mL	first compound 0.25 µg/mL	first compound 0.5 µg/mL	first compound 1 µg/mL	first compound 2 µg/mL	first compound 4 µg/mL
B. subtilis 168 [6], partner 0.125 µg/mL	0.604	0.605	0.508	–	–	–
B. subtilis 168 [6], partner 0.25 µg/mL	0.0809	–	–	–	–	–
B. subtilis 168 [6], partner 0.5 µg/mL	0.0486	0.0567	0.0348	–	–	–
S. aureus DSM 20231 [4], partner 0.125 µg/mL	–	–	0.844	0.928	0.951	–
S. aureus DSM 20231 [4], partner 0.25 µg/mL	0.629	0.595	0.651	0.823	0.775	–
S. aureus DSM 20231 [4], partner 0.5 µg/mL	0.19	0.177	0.257	0.319	0.335	–
S. pneumoniae D39V [5], partner 0.105 µg/mL	–	–	–	0.741	0.786	0.77
S. pneumoniae D39V [5], partner 0.2 µg/mL	–	–	–	0.409	0.413	0.412
S. pneumoniae D39V [5], partner 0.21 µg/mL	–	–	–	0.651	0.689	0.689
S. pneumoniae D39V [5], partner 0.4 µg/mL	–	–	–	0.207	0.22	0.205
S. pneumoniae D39V [5], partner 0.42 µg/mL	–	–	–	0.476	0.447	0.554
S. pneumoniae D39V [5], partner 0.8 µg/mL	–	–	–	0.0731	0.0931	0.0732

CCCCCCCCCC(=O)N[C@@H](Cc1c[nH]c2ccccc12)C(=O)N[C@H](CC(N)=O)C(=O)N[C@@H](CC(=O)O)C(=O)N[C@@H]1C(=O)NCC(=O)N[C@@H](CCCN)C(=O)N[C@@H](CC(=O)O)C(=O)N[C@H](C)C(=O)N[C@@H](CC(=O)O)C(=O)NCC(=O)N[C@H](CO)C(=O)N[C@@H]([C@H](C)CC(=O)O)C(=O)N[C@@H](CC(=O)c2ccccc2N)C(=O)O[C@@H]1C [Daptomycin] + CCC[C@@H]1C[C@@H](C(=O)N[C@@H]([C@H]2O[C@H](SC)[C@H](O)[C@@H](O)[C@H]2O)[C@@H](C)O)N(C)C1 [Lincomycin]
Conditions	Bliss interaction score
B. subtilis 168 [3]	-0.0659
S. aureus DSM 20231 [1]	0.099
S. aureus Newman	0.0732
S. pneumoniae D39V [2]	-0.133

fitness
Conditions	partner 0.1 µg/mL	partner 0.2 µg/mL	partner 0.215 µg/mL	partner 0.4 µg/mL	partner 0.43 µg/mL	partner 0.8 µg/mL	partner 0.86 µg/mL
B. subtilis 168 [6], first compound 0.125 µg/mL	0.865	0.904	–	0.863	–	–	–
B. subtilis 168 [6], first compound 0.25 µg/mL	0.869	0.901	–	0.848	–	–	–
B. subtilis 168 [6], first compound 0.5 µg/mL	0.937	0.905	–	–	–	–	–
S. aureus DSM 20231 [4], first compound 0.5 µg/mL	0.962	0.821	–	–	–	–	–
S. aureus DSM 20231 [4], first compound 1 µg/mL	0.911	0.806	–	–	–	–	–
S. aureus DSM 20231 [4], first compound 2 µg/mL	0.937	0.817	–	–	–	–	–
S. pneumoniae D39V [5], first compound 1 µg/mL	–	0.409	0.764	0.22	0.697	0.053	0.396
S. pneumoniae D39V [5], first compound 2 µg/mL	–	0.405	0.764	0.241	0.72	0.0442	0.408
S. pneumoniae D39V [5], first compound 4 µg/mL	–	0.366	0.802	0.204	0.702	0.0329	0.411

fitness, B. subtilis 168 [6], one replicate
Conditions	first compound 0.25 µg/mL	first compound 0.5 µg/mL	first compound 1 µg/mL
partner 0.4 µg/mL	–	–	0.686
partner 0.8 µg/mL	0.851	0.788	0.647
partner 1.6 µg/mL	0.797	0.81	0.657
